The results in this text go back to BindingDB's records for doi:10.1021/acschembio.6b01129 (Promega Biosciences LLC, 2017).

Oplophorus-luciferin 2-monooxygenase catalytic subunit, sequence (Q9GV45 whole entry): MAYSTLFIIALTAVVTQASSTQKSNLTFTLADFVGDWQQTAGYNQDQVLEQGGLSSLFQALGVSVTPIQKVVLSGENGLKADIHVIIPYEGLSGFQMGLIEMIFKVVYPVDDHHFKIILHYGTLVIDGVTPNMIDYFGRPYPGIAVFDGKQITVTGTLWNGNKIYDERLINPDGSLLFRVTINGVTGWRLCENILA

For this experiment, the target named is Oplophorus-luciferin 2-monooxygenase catalytic subunit (Oplophorus gracilirostris, UniProt Q9GV45). Kind of experiment: NanoLuc Inhibition Assay. As to the method:
NanoLuc enzyme was diluted to 0.4 ng/mL in CO2 independent media + 10% FBS to make the detection reagent. A 3× dilution series of each inhibitor was then made in the detection reagent. A "no inhibitor" control was also made for each sample. A total of 50 μL of each inhibitor dilution was mixed with 50 μL of NanoGlo buffer containing 20 μM furimazine (final furimazine concentration is 10 μM, which is atKM), and luminescence was measured. Each sample was normalized to the "no inhibitor" control.
Compound `CCN(C(=O)Cn1c(C(=O)N[C@H]2CC[C@H](C(=O)OC)CC2)cc2sccc21)c1cccc(C(C)C)c1` (mixture of isomers) [Methyl trans-4-(4-(2-(ethyl(3-isopropylphenyl)amino)-2-oxoethyl)-4H-thieno[3,2-b]pyrrole-5carboxamido)cyclohexane-1-carboxylate (23)] displayed an IC50 of 0.13 µM.
For `CCCCCCNC(=O)C1CCC(NC(=O)c2cc3sccc3n2CC(=O)N(CC)c2cccc(C)c2)CC1` (trans isomer) [4-(2-(Ethyl(m-tolyl)amino)-2-oxoethyl)-N-(trans-4-(hexylcarbamoyl)cyclohexyl)-4H-thieno[3,2b]pyrrole-5-carboxamide (38)], the 50% inhibitory concentration (IC50) is 0.16 µM.
For `CCN(C(=O)Cn1c(C(=O)NC2CCC(C(=O)NCCCC(=O)O)CC2)cc2sccc21)c1cccc(C)c1` (trans isomer) [4-(trans-4-(4-(2-(Ethyl(m-tolyl)amino)-2-oxoethyl)-4H-thieno[3,2-b]pyrrole-5carboxamido)cyclohexane-1-carboxamido)butanoic acid (37)] the value was 0.89 µM.
Then `CCN(C(=O)Cn1c(C(=O)NC2CCC(C(=O)NCCN(C)C)CC2)cc2sccc21)c1cccc(C)c1` (trans isomer) [N-(trans-4-((2-(dimethylamino)ethyl)carbamoyl)cyclohexyl)-4-(2-(ethyl(m-tolyl)amino)-2oxoethyl)-4H-thieno[3,2-b]pyrrole-5-carboxamide (36)], with 17.8 µM.
For `CCN(C(=O)Cn1c(C(=O)NC2CCC(C(=O)NCCCCCCS(=O)(=O)O)CC2)cc2sccc21)c1cccc(C)c1` (trans isomer) [Sodium 6-(trans-4-(4-(2-(ethyl(m-tolyl)amino)-2-oxoethyl)-4H-thieno[3,2-b]pyrrole-5carboxamido)cyclohexane-1-carboxamido)hexane-1-sulfonate (43)] the value was 0.071 µM; for `CCN(C(=O)Cn1c(C(=O)NC2CCC(C(=O)NCCO)CC2)cc2sccc21)c1cccc(C)c1` (stereo not drawn) [4-(2-(Ethyl(m-tolyl)amino)-2-oxoethyl)-N-(trans-4-((2-hydroxyethyl)carbamoyl)cyclohexyl)-4Hthieno[3,2-b]pyrrole-5-carboxamide (35)], 0.83 µM; for `CCN(C(=O)Cn1c(C(=O)NC2CCC(C(=O)NCCCCCCO)CC2)cc2sccc21)c1cccc(C)c1` (stereo not drawn) [4-(2-(Ethyl(m-tolyl)amino)-2-oxoethyl)-N-(trans-4-((6-hydroxyhexyl)carbamoyl)cyclohexyl)4H-thieno[3,2-b]pyrrole-5-carboxamide (39)], 0.03 µM.
`CCN(C(=O)Cn1c(C(=O)NC2CCC(C(=O)NCCCCCC(=O)O)CC2)cc2sccc21)c1cccc(C)c1` (stereo not drawn) [6-(trans-4-(4-(2-(Ethyl(m-tolyl)amino)-2-oxoethyl)-4H-thieno[3,2-b]pyrrole-5carboxamido)cyclohexane-1-carboxamido)hexanoic acid (41)] displayed an IC50 of 0.094 µM.
`CCN(C(=O)Cn1c(C(=O)NC2CCC(C(=O)NCCCCCCCC(=O)O)CC2)cc2sccc21)c1cccc(C)c1` (stereo not drawn) [8-(trans-4-(4-(2-(Ethyl(m-tolyl)amino)-2-oxoethyl)-4H-thieno[3,2-b]pyrrole-5carboxamido)cyclohexane-1-carboxamido)octanoic acid (42)] displayed an IC50 of 0.031 µM.
`CCN(C(=O)Cn1c(C(=O)N[C@H]2CC[C@H](C(=O)NCCCCCCNC(=O)[C@H](CC(=O)O)NC(=O)[C@H](CC(=O)O)NC(=O)[C@H](CC(=O)O)NC(C)=O)CC2)cc2sccc21)c1cccc(C)c1` [(11S,14S,17S)-17-Acetamido-11,14-bis(carboxymethyl)-1-(trans-4-(4-(2-(ethyl(m-tolyl)amino)2-oxoethyl)-4H-thieno[3,2-b]pyrrole-5-carboxamido)cyclohexyl)-1,10,13,16-tetraoxo-2,9,12,15tetraazanonadecan-19-oic acid (46)] registered a half-inhibitory concentration (IC50) of 0.066 µM.
Then `CCOC(=O)Cc1ccc(NC(=O)c2cc3sccc3n2CC(=O)N(CC)c2cccc(C)c2)cc1` [Ethyl 2-(4-(4-(2-(ethyl(m-tolyl)amino)-2-oxoethyl)-4H-thieno[3,2-b]pyrrole-5carboxamido)phenyl)acetate (12)], with 4.7 µM.
